Measured values taken from US9724362B2, “Pharmaceutical compositions comprising nanoparticles and a resuspending material” (Bend Research, Inc., priority 2007, dated 2017).
Values after ≈ are worked out from the molar mass of the structure shown. Read-outs that look alike come from different tables or passages of the source.

Assays:
Drug solubility = assay type: physicochemical

A solubility (Drug solubility; MFD solution, read-out: solubility in MFD solution) of ~40 µg/mL (≈ 105 µM) was found for `Cc1ccc(-c2cc(C(F)(F)F)nn2-c2ccc(S(N)(=O)=O)cc2)cc1` [Drug 1, 4-[5-(4-methylphenyl)-3-(trifluoromethyl)-1H-pyrazol-1-yl]benzenesulfonamide] in this work.
In the case of `CCOC(=O)N1c2ccc(C(F)(F)F)cc2[C@@H](N(Cc2cc(C(F)(F)F)cc(C(F)(F)F)c2)C(=O)OC)C[C@H]1CC` [Drug 2, [2R,4S]4-[(3,5-bis-trifluoromethyl-benzyl)-methoxycarbonyl-amino]-2-ethyl-6-trifluoromethyl-3,4-dihydro-2H-quinoline-1-carboxylic acid ethyl ester], the solubility (Drug solubility; water, read-out: solubility in water) is reported as < 0.1 µg/mL.
With Ethylcellulose the “amount of polymer soluble at pH 6.5” value was “less than 0.001 mg/mL”.
